Test results taken from patent EP1203770A1 (priority 1992, dated 1994).
Where a name gives a salt, the structure may show the parent alone. Read-outs that look alike come from different tables or passages of the source.

Biological target: T1, HIV-1 protease (Human immunodeficiency virus type 1 group M subtype B, UniProt P04585)
T1 construct: The protease (or proteinase), consisting of only 99 amino acids, is among the smallest enzymes known
Assay: In vitro HIV protease inhibitory assay (HIV Protease FITC Assay)
Format: biochemical
Details: for inhibition at 1 µM / inhibition at 10 µM / inhibition at 100 µM: read-out: HIV-1 Protease % Inhib
Procedure: The HIV protease screening assay is based on a fluorescently labeled substrate which can be resolved from nonlabeled cleavage product using avidin-polystyrene particles, 0.7-0.9 µm. The substrate is biotinylated at the amino terminal arginine and fluorescently labeled with fluorescein isothiocynate (FITC) at the carboxyl terminal lysine. […] Substrate (20 µl of 0.2 µM), sample (10 µl of desired concentraion), and enzyme (10 µl of 0.1 µM) are added to a 96 well pandex plate. The assay is run in 0.1 M sodium acetate buffer at pH 5.5 in the presence of 1.0 M sodium chloride and 0.05% NP-40 and incubated in the dark for one hour at room temperature. Avidin coated polystyrene beads {40 µl of 0.1% (w/v)} are added and the incubation is continued in the dark for an additional half hour. The labeled cleavage product is separated from the unreacted substrate via filtration and is read on the Idexx Screen Machine. The data are analyzed by appropriate computer algorithms to ascertain percent inhibition values.

3-(.alpha.-ethylbenzyl)-4-hydroxy-6-(3-butenyl)-2H-Pyran-2-one [Example 10]
IC50: 2.9 µM
HIV-1 Protease % Inhib (HIV-1 Dose 1.000 uM): 14.18%
HIV-1 Protease % Inhib (HIV-1 Dose 10.000 uM): 82.75%
HIV-1 Protease % Inhib (HIV-1 Dose 100.000 uM): 104.37%

3-(.alpha.-ethylbenzyl)-4-hydroxy-6-propyl-2H-Pyran-2-one [Example 9]
IC50: 19.2 µM
HIV-1 Protease % Inhib (HIV-1 Dose 1.000 uM): 16.27%
HIV-1 Protease % Inhib (HIV-1 Dose 10.000 uM): 73.49%
HIV-1 Protease % Inhib (HIV-1 Dose 100.000 uM): 98.35%

3-(α-Cyclopropyl-meta-(tert-butyloxycarbonylamino)benzyl)-6-(α-cyclopropylmethyl-cyclopropylethyl)-4-hydroxy-2H-pyran-2-one [Example 38]
HIV-1 Protease % Inhib (HIV-1 Dose 0.123 uM): <10%
HIV-1 Protease % Inhib (HIV-1 Dose 0.370 uM): <10%
HIV-1 Protease % Inhib (HIV-1 Dose 1.100 uM): <10%
HIV-1 Protease % Inhib (HIV-1 Dose 3.300 uM): 26.72%
HIV-1 Protease % Inhib (HIV-1 Dose 10.000 uM): 58.44%
HIV-1 Protease % Inhib (HIV-1 Dose 30.000 uM): 69.94%

CCC(c1ccccc1)c1c(O)cc(-c2ccccc2)oc1=O (stereo not drawn) [Example 1, 3-(α-ethylbenzyl)-4-hydroxy-6-phenyl-2H-Pyran-2-one]
inhibition at 1 µM (HIV-1 Dose 1.000 uM): < 10%
inhibition at 10 µM (HIV-1 Dose 10.000 uM): 45.5%
inhibition at 100 µM (HIV-1 Dose 100.000 uM): 80%

CCC(c1ccccc1)c1c(O)cc(Cc2ccccc2)oc1=O (stereo not drawn) [Example 2, 6-benzyl-3-(α-ethylbenzyl)-4-hydroxy-2H-Pyran-2-one]
inhibition at 1 µM (HIV-1 Dose 1.000 uM): < 10%
inhibition at 10 µM (HIV-1 Dose 10.000 uM): 38.7%
inhibition at 100 µM (HIV-1 Dose 100.000 uM): 74.3%

CCCC(c1ccc(Br)cc1)c1c(O)cc(CCc2ccccc2)oc1=O (stereo not drawn) [Example 4, 4-hydroxy-6-phenethyl-3-(α-propyl-p-bromobenzyl)-2H-Pyran-2-one]
inhibition at 1 µM (HIV-1 Dose 1.000 uM): < 10%
inhibition at 10 µM (HIV-1 Dose 10.000 uM): 15.8%
inhibition at 100 µM (HIV-1 Dose 100.000 uM): 51.2%

CCC(c1ccccc1)c1c(O)cc(CCc2ccc(Br)cc2)oc1=O (stereo not drawn) [Example 6, 6-(p-bromophenethyl)-3-(α-ethylbenzyl)-4-hydroxy-2H-Pyran-2-one]
inhibition at 1 µM (HIV-1 Dose 1.000 uM): 15.6%
inhibition at 10 µM (HIV-1 Dose 10.000 uM): 39.6%
inhibition at 100 µM (HIV-1 Dose 100.000 uM): 69.7%

CCC(c1ccccc1)c1c(O)cc(CCc2ccccc2F)oc1=O (stereo not drawn) [Example 7, 3-(α-ethylbenzyl)-6-(o-fluorophenethyl)-4-hydroxy-2H-Pyran-2-one]
IC50: 6.4 µM
inhibition at 1 µM (HIV-1 Dose 1.000 uM): 14%
inhibition at 10 µM (HIV-1 Dose 10.000 uM): 74.1%
HIV-1 Protease % Inhib (HIV-1 Dose 100.000 uM): 109%
inhibition at 100 µM (HIV-1 Dose 100.000 uM): 109%

CCC(c1ccccc1)c1c(O)cc(CCCc2ccccc2)oc1=O (stereo not drawn) [Example 8, 3-(α-ethylbenzyl)-4-hydroxy-6-(3-phenylpropyl)-2H-Pyran-2-one]
IC50: 3.9 µM
inhibition at 1 µM (HIV-1 Dose 1.000 uM): 15.8%
inhibition at 10 µM (HIV-1 Dose 10.000 uM): 79%
HIV-1 Protease % Inhib (HIV-1 Dose 100.000 uM): 97%
inhibition at 100 µM (HIV-1 Dose 100.000 uM): 96.6%

CCC(c1ccccc1)c1c(O)cc(CC(=O)Nc2ccccc2)oc1=O (stereo not drawn) [Example 11, 3-(α-ethylbenzyl)-4-hydroxy-6-[[(phenylamino)carbonyl]methyl]-2H-Pyran-2-one]
inhibition at 1 µM (HIV-1 Dose 1.000 uM): 10.8%
inhibition at 10 µM (HIV-1 Dose 10.000 uM): 35.6%
inhibition at 100 µM (HIV-1 Dose 100.000 uM): 79.8%

C=CC(c1ccccc1)c1c(O)cc(CCc2ccccc2)oc1=O (stereo not drawn) [Example 12, 4-hydroxy-6-phenethyl-3-(α-vinylbenzyl)-2H-Pyran-2-one]
IC50: 5.4 µM
inhibition at 1 µM (HIV-1 Dose 1.000 uM): 17.5%
inhibition at 10 µM (HIV-1 Dose 10.000 uM): 67.4%
HIV-1 Protease % Inhib (HIV-1 Dose 100.000 uM): 107%
inhibition at 100 µM (HIV-1 Dose 100.000 uM): 107%

CCC(CC)c1cc(O)c(C(CC)c2ccccc2)c(=O)o1 (stereo not shown) [Example 14, 6-(1'-Ethyl-propyl)-4-hydroxy-3-(1'-phenyl-propyl)-2-pyrone]
IC50: 2.2 µM
inhibition at 1 µM (HIV-1 Dose 1.000 uM): 40.2%
inhibition at 10 µM (HIV-1 Dose 10.000 uM): 90.2%
inhibition at 100 µM (HIV-1 Dose 100.000 uM): 105%

CCC(c1ccccc1)c1c(O)cc(C=Cc2ccc(OC)cc2)oc1=O (stereo not drawn) [Example 15, 3-(α-ethylbenzyl)-4-hydroxy-6-(p-methoxystyryl)-2H-Pyran-2-one]
IC50: 9.7 µM
inhibition at 1 µM (HIV-1 Dose 1.000 uM): 21.5%
inhibition at 10 µM (HIV-1 Dose 10.000 uM): 84%
inhibition at 100 µM (HIV-1 Dose 100.000 uM): 102%

CCC(c1ccccc1)c1c(O)cc(CCc2ccc3ccccc3c2)oc1=O (stereo not drawn) [Example 16, 3-(α-ethylbenzyl)-4-hydroxy-6-(2-naphth-2-ylethyl)-2H-Pyran-2-one]
inhibition at 1 µM (HIV-1 Dose 1.000 uM): < 10%
inhibition at 10 µM (HIV-1 Dose 10.000 uM): < 10%
inhibition at 100 µM (HIV-1 Dose 100.000 uM): 49.9%

CCC(Cc1ccc2ccccc2c1)c1cc(O)c(C(CC)c2ccccc2)c(=O)o1 (stereo not drawn) [Example 17, 3-(α-ethylbenzyl)-4-hydroxy-6-(1-ethyl-2-naphth-2-ylethyl)-2H-Pyran-2-one]
inhibition at 1 µM (HIV-1 Dose 1.000 uM): < 10%
inhibition at 10 µM (HIV-1 Dose 10.000 uM): 49.5%
inhibition at 100 µM (HIV-1 Dose 100.000 uM): 73.6%

CCC(c1ccccc1)c1c(O)cc(CCc2cccc3ccccc23)oc1=O (stereo not drawn) [Example 18, 3-(α-ethylbenzyl)-4-hydroxy-6-(2-naphth-1-ylethyl)-2H-Pyran-2-one]
inhibition at 1 µM (HIV-1 Dose 1.000 uM): < 10%
inhibition at 10 µM (HIV-1 Dose 10.000 uM): 42.1%
inhibition at 100 µM (HIV-1 Dose 100.000 uM): 86.8%

CCC(Cc1cccc2ccccc12)c1cc(O)c(C(CC)c2ccccc2)c(=O)o1 (stereo not drawn) [Example 19, 3-(α-ethylbenzyl)-4-hydroxy-6-(1-ethyl-2-naphth-1-ylethyl)-2H-Pyran-2-one]
inhibition at 1 µM (HIV-1 Dose 1.000 uM): 11%
inhibition at 10 µM (HIV-1 Dose 10.000 uM): 79.3%
inhibition at 100 µM (HIV-1 Dose 100.000 uM): 84.3%

Cc1cc(O)c(C(c2ccccc2)C2CC2)c(=O)o1 (stereo not drawn) [Example 20, 3-(α-cyclopropylbenzyl)-4-hydroxy-6-methyl-2H-Pyran-2-one]
inhibition at 1 µM (HIV-1 Dose 1.000 uM): < 10%
inhibition at 10 µM (HIV-1 Dose 10.000 uM): < 10%
inhibition at 100 µM (HIV-1 Dose 100.000 uM): 60.6%

O=c1oc(CCCc2ccccc2)cc(O)c1C(c1ccccc1)C1CC1 (stereo not drawn) [Example 21, 3-(α-cyclopropylbenzyl)-4-hydroxy-6-(3-phenylpropyl)-2H-Pyran-2-one]
IC50: 9.6 µM
inhibition at 1 µM (HIV-1 Dose 1.000 uM): 17.6%
inhibition at 10 µM (HIV-1 Dose 10.000 uM): 83.7%
inhibition at 100 µM (HIV-1 Dose 100.000 uM): 110%

CCC(CC)c1cc(O)c(C(c2ccccc2)C2CC2)c(=O)o1 (stereo not drawn) [Example 22, 3-(α-cyclopropylbenzyl)-6-(1-ethylpropyl)-4-hydroxy-2H-Pyran-2-one]
IC50: 1.8 µM
inhibition at 1 µM (HIV-1 Dose 1.000 uM): 33.8%
inhibition at 10 µM (HIV-1 Dose 10.000 uM): 98.3%
inhibition at 100 µM (HIV-1 Dose 100.000 uM): 108%

O=c1oc(C(Cc2ccccc2)Cc2ccccc2)cc(O)c1C(c1ccccc1)C1CC1 (stereo not drawn) [Example 23, 3-(α-cyclopropylbenzyl)-6-(α-benzylphenethyl)-4-hydroxy-2H-Pyran-2-one]
IC50: 3 µM
inhibition at 1 µM (HIV-1 Dose 1.000 uM): < 10%
inhibition at 10 µM (HIV-1 Dose 10.000 uM): 77.9%
inhibition at 100 µM (HIV-1 Dose 100.000 uM): 87%

O=c1oc(CCc2ccccc2)cc(O)c1C(c1ccccc1)C1CC1 (stereo not drawn) [Example 24, 3-(α-cyclopropylbenzyl)-4-hydroxy-6-phenethyl-2H-Pyran-2-one]
IC50: 6.3 µM
inhibition at 1 µM (HIV-1 Dose 1.000 uM): < 10%
inhibition at 10 µM (HIV-1 Dose 10.000 uM): 61.3%
inhibition at 100 µM (HIV-1 Dose 100.000 uM): 105%

CCCC(CCC)c1cc(O)c(C(c2ccccc2)C2CC2)c(=O)o1 (stereo not drawn) [Example 25, 3-(α-cyclopropylbenzyl)-6-(1-propylbutyl)-4-hydroxy-2H-Pyran-2-one]
Ki (read-out: HIV-1 FITC Ki): 0.041 µM

CCC(c1ccccc1)C1C(=O)CC(CC)(c2ccccc2)OC1=O (stereo not drawn) [Example 26, 6-Ethyl-3-(α-ethylbenzyl)-6-phenyl-tetrahydropyran-2,4-dione]
Ki: 0.163 µM
inhibition at 1 µM: 38.7%
inhibition at 10 µM: 78.8%
inhibition at 100 µM: 86.3%

CCC1(CC)CC(=O)C(CCCc2ccccc2)C(=O)O1 (stereo not shown) [Example 27, 6,6-Diethyl-3-(3-phenylpropyl)-tetrahydropyran-2,4-dione]
inhibition at 1 µM (HIV-1 Dose 1.000 uM): 14.7%
inhibition at 10 µM (HIV-1 Dose 10.000 uM): 41.4%
inhibition at 100 µM (HIV-1 Dose 100.000 uM): 90.5%

CCCC1(c2ccccc2)CC(O)=C(C(CC)c2cccc(O)c2)C(=O)O1 (stereo not shown) [Example 30, 5,6-Dihydro-4-hydroxy-6-phenyl-6-propyl-3-[1-(3-hydroxyphenyl)-propyl]-2H-pyran-2-one]
inhibition at 1 µM (HIV-1 Dose 1.000 uM): 46.4%
inhibition at 10 µM (HIV-1 Dose 10.000 uM): 86%
inhibition at 100 µM (HIV-1 Dose 100.000 uM): 75.7%

CCC(C1=C(O)CC(c2ccccc2)(C2CCCCC2)OC1=O)c1cccc(O)c1 (stereo not shown) [Example 31, 5,6-Dihydro-4-hydroxy-6-cyclohexyl-6-phenyl-3-[1-(3-hydroxyphenyl)propyl]-2H-pyran-2-one]
Ki: 0.61 µM
inhibition at 1 µM: 18.7%
inhibition at 10 µM: 81%
inhibition at 100 µM: 86%

CCCC1(c2ccccc2)CC(O)=C(C(CC)c2ccccc2)C(=O)O1 (stereo not shown) [Example 32, 5,6-Dihydro-4-hydroxy-6-phenyl-6-propyl-3-(1-phenylpropyl)-2H-pyran-2-one]
Ki: 0.25 µM
inhibition at 1 µM: 56.1%
inhibition at 10 µM: 106%
inhibition at 100 µM: 93.1%

CCC(C1=C(O)CC2(CCCCC2)OC1=O)c1ccccc1 (stereo not shown) [Example 33, 4-Hydroxy-1-oxa-3-(1-phenylpropyl)spiro-[5,5]-undec-3-en-2-one, sodium salt]
inhibition at 1 µM: 10.2%
inhibition at 10 µM: 68.5%
inhibition at 100 µM: 80.7%

C=CC(c1ccccc1)C1C(=O)CC(C)(c2ccccc2)OC1=O (stereo not shown) [Example 34, Dihydro-6-methyl-6-phenyl-3-(1-phenyl-2-propenyl)-2H-Pyran-2,4(3H)-dione]
inhibition at 1 µM (HIV-1 Dose 1.000 uM): < 10%
inhibition at 10 µM (HIV-1 Dose 10.000 uM): 56.5%
inhibition at 100 µM (HIV-1 Dose 100.000 uM): 67.9%
Ki (read-out: HIV-1 FITC Ki): 0.625 µM

CCCC1(c2ccccc2)CC(=O)C(C(CC)c2cccc(O)c2)C(=O)O1 (stereo not shown) [Example 35, Dihydro-3-(1-(3-hydroxyphenyl)propyl]-6-phenyl-6-propyl-2H-pyran-2,4(3H)-dione]
inhibition at 1 µM (HIV-1 Dose 1.000 uM): 23.8%
inhibition at 10 µM (HIV-1 Dose 10.000 uM): 79.8%
inhibition at 100 µM (HIV-1 Dose 100.000 uM): 73.6%
